Patent US12077503B2, “Substituted cyclic amides and their use as herbicides” (FMC CORPORATION, priority 2015, dated 2024)

Key:
Test in all cases: Test D preemergence
Type in all cases: in vivo
Conditions in all cases: scale 0 to 100
[1] = system: blackgrass (Alopecurus myosuroides)
Summary of the method: (§1)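 Test chemicals, formulated in a non-phytotoxic solvent blend including surfactant, are applied preemergence to seeded silt loam soil. Response is judged visually against controls after approximately 21 d in a controlled environment, on a scale where 0 is no effect and 100 is complete control.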

[2] = system: chamomile (scentless chamomile, Matricaria inodora)
Summary of the method: as §1

[3] = system: mustard, wild (wild mustard, Sinapis arvensis)
Summary of the method: as §1

[4] = system: Galium (catchweed bedstraw, Galium aparine)
Summary of the method: as §1

[5] = system: wheat, spring (spring wheat, Triticum aestivum)
Summary of the method: as §1

[6] = system: canarygrass (littleseed canarygrass, Phalaris minor)
Summary of the method: as §1

[7] = system: barley, spring (spring barley, Hordeum vulgare)
Summary of the method: as §1

[8] = system: oat, wild (wild oat, Avena fatua)
Summary of the method: as §1

[9] = system: foxtail, green (green foxtail, Setaria viridis)
Summary of the method: as §1

[10] = system: barley, winter (winter barley Hordeum vulgare)
Summary of the method: as §1

[11] = system: chickweed (common chickweed, Stellaria media)
Summary of the method: as §1

[12] = system: radish, wild (wild radish, Raphanus raphanistrum)
Summary of the method: as §1

[13] = system: ryegrass, Italian (Italian ryegrass, Lolium multiflorum)
Summary of the method: as §1

[14] = system: oilseed rape (Brassica napus)
Summary of the method: as §1

[15] = system: bluegrass (annual bluegrass, Poa annua)
Summary of the method: as §1

[16] = system: pigweed (Amaranthus retroflexus)
Summary of the method: as §1

[17] = system: wheat, winter (winter wheat, Triticum aestivum)
Summary of the method: as §1

[18] = system: field poppy (Papaver rhoeas)
Summary of the method: as §1

[19] = system: deadnettle (henbit deadnettle, Lamium amplexicaule)
Summary of the method: as §1

[20] = system: bromegrass, downy (downy bromegrass, Bromus tectorum)
Summary of the method: as §1

[21] = system: lambsquarters (Chenopodium album)
Summary of the method: as §1

[22] = system: Russian thistle (Salsola kali)
Summary of the method: as §1

CN1CC(c2cccc(C(F)(F)F)c2)C(C(=O)Nc2ccccc2S(C)(=O)=O)C1=O (centres unmarked) [Compound 637]
65: Plant response rating: Chickweed ([11]; 125 g ai/ha) | Plant response rating: Oilseed Rape ([14]; 250 g ai/ha) | Plant response rating: Deadnettle ([19]; 250 g ai/ha)
60: Plant response rating: Barley, Winter ([10]; 250 g ai/ha) | Plant response rating: Wheat, Winter ([17]; 125 g ai/ha) | Plant response rating: Lambsquarters ([21]; 62 g ai/ha)
75: Plant response rating: Oat, Wild ([8]; 125 g ai/ha) | Plant response rating: Foxtail, Green ([9]; 31 g ai/ha) | Plant response rating: Chickweed ([11]; 250 g ai/ha) | Plant response rating: Bluegrass ([15]; 125 g ai/ha) | Plant response rating: Wheat, Winter ([17]; 250 g ai/ha) | Plant response rating: Lambsquarters ([21]; 250 g ai/ha)
98: Plant response rating: Pigweed ([16]; 250 g ai/ha)
80: Plant response rating: Wheat, Spring ([5]; 125 g ai/ha) | Plant response rating: Foxtail, Green ([9]; 62 g ai/ha)
10: Plant response rating: Blackgrass ([1]; 31 g ai/ha) | Plant response rating: Blackgrass ([1]; 62 g ai/ha) | Plant response rating: Galium ([4]; 250 g ai/ha) | Plant response rating: Bromegrass, Downy ([20]; 62 g ai/ha) | Plant response rating: Russian Thistle ([22]; 125 g ai/ha)
25: Plant response rating: Bluegrass ([15]; 62 g ai/ha) | Plant response rating: Deadnettle ([19]; 125 g ai/ha) | Plant response rating: Bromegrass, Downy ([20]; 125 g ai/ha)
70: Plant response rating: Wheat, Spring ([5]; 250 g ai/ha) | Plant response rating: Canarygrass ([6]; 250 g ai/ha) | Plant response rating: Barley, Spring ([7]; 250 g ai/ha)
100: Plant response rating: Foxtail, Green ([9]; 250 g ai/ha) | Plant response rating: Bluegrass ([15]; 250 g ai/ha) | Plant response rating: Pigweed ([16]; 125 g ai/ha) | Plant response rating: Field Poppy ([18]; 31 g ai/ha) | Plant response rating: Field Poppy ([18]; 62 g ai/ha) | Plant response rating: Field Poppy ([18]; 125 g ai/ha) | Plant response rating: Field Poppy ([18]; 250 g ai/ha)
40: Plant response rating: Barley, Spring ([7]; 125 g ai/ha) | Plant response rating: Oilseed Rape ([14]; 62 g ai/ha) | Plant response rating: Oilseed Rape ([14]; 125 g ai/ha) | Plant response rating: Wheat, Winter ([17]; 62 g ai/ha) | Plant response rating: Bromegrass, Downy ([20]; 250 g ai/ha) | Plant response rating: Lambsquarters ([21]; 125 g ai/ha)
0: Plant response rating: Chamomile ([2]; 31 g ai/ha) | Plant response rating: Galium ([4]; 31 g ai/ha) | Plant response rating: Canarygrass ([6]; 31 g ai/ha) | Plant response rating: Canarygrass ([6]; 62 g ai/ha) | Plant response rating: Barley, Spring ([7]; 31 g ai/ha) | Plant response rating: Barley, Winter ([10]; 31 g ai/ha) | Plant response rating: Barley, Winter ([10]; 62 g ai/ha) | Plant response rating: Chickweed ([11]; 31 g ai/ha) | Plant response rating: Ryegrass, Italian ([13]; 31 g ai/ha) | Plant response rating: Ryegrass, Italian ([13]; 62 g ai/ha) | Plant response rating: Oilseed Rape ([14]; 31 g ai/ha) | Plant response rating: Deadnettle ([19]; 31 g ai/ha) | Plant response rating: Deadnettle ([19]; 62 g ai/ha) | Plant response rating: Bromegrass, Downy ([20]; 31 g ai/ha) | Plant response rating: Russian Thistle ([22]; 31 g ai/ha) | Plant response rating: Russian Thistle ([22]; 62 g ai/ha)
85: Plant response rating: Oat, Wild ([8]; 250 g ai/ha)
5: Plant response rating: Mustard, Wild ([3]; 31 g ai/ha) | Plant response rating: Mustard, Wild ([3]; 62 g ai/ha) | Plant response rating: Wheat, Spring ([5]; 31 g ai/ha) | Plant response rating: Chickweed ([11]; 62 g ai/ha) | Plant response rating: Bluegrass ([15]; 31 g ai/ha) | Plant response rating: Wheat, Winter ([17]; 31 g ai/ha)
15: Plant response rating: Mustard, Wild ([3]; 125 g ai/ha) | Plant response rating: Mustard, Wild ([3]; 250 g ai/ha)
90: Plant response rating: Chamomile ([2]; 125 g ai/ha) | Plant response rating: Chamomile ([2]; 250 g ai/ha) | Plant response rating: Radish, Wild ([12]; 250 g ai/ha) | Plant response rating: Pigweed ([16]; 62 g ai/ha)
30: Plant response rating: Galium ([4]; 125 g ai/ha) | Plant response rating: Wheat, Spring ([5]; 62 g ai/ha) | Plant response rating: Oat, Wild ([8]; 62 g ai/ha)
20: Plant response rating: Galium ([4]; 62 g ai/ha) | Plant response rating: Barley, Spring ([7]; 62 g ai/ha) | Plant response rating: Oat, Wild ([8]; 31 g ai/ha) | Plant response rating: Radish, Wild ([12]; 62 g ai/ha) | Plant response rating: Radish, Wild ([12]; 125 g ai/ha) | Plant response rating: Ryegrass, Italian ([13]; 125 g ai/ha) | Plant response rating: Ryegrass, Italian ([13]; 250 g ai/ha) | Plant response rating: Pigweed ([16]; 31 g ai/ha)
50: Plant response rating: Blackgrass ([1]; 250 g ai/ha) | Plant response rating: Canarygrass ([6]; 125 g ai/ha) | Plant response rating: Barley, Winter ([10]; 125 g ai/ha) | Plant response rating: Lambsquarters ([21]; 31 g ai/ha) | Plant response rating: Russian Thistle ([22]; 250 g ai/ha)
95: Plant response rating: Foxtail, Green ([9]; 125 g ai/ha)
45: Plant response rating: Blackgrass ([1]; 125 g ai/ha)
